Measured values from article PMC7098856 (British Journal of Clinical Pharmacology, 2020).
Where “and” joins values, the source holds several entries; their conditions need not be identical. Identical values can stand only once. Like-named read-outs stand apart in the source and are kept apart here.

Legend:
[1] = system: enzymes or transporters; conditions: at therapeutic exposures; cited from earlier work
[2] = cited from earlier work
[3] = Safety and tolerability; type: in vivo, patients with advanced solid tumours; conditions: whole Arm B
[4] = cited from earlier work; remark: listed apart in the source
[5] = Phase 1 dose escalation study; cited from earlier work
[6] = Safety and tolerability; type: in vivo, patients with advanced solid tumours; conditions: both arms; talazoparib alone or together with itraconazole or rifampicin
[7] = type: in vivo, patients with advanced solid tumours; conditions: for CL/F / variability of talazoparib Cmax: Arm B; for CL/F: geometric mean (CV%)
[8] = cited from earlier work; remark: listed apart in the source
[9] = system: P‐glycoprotein (P‐gp); conditions: in vitro; cited from earlier work
[10] = system: breast cancer resistance protein; conditions: in vitro; cited from earlier work
[11] = population PK, cited from earlier work
[12] = type: in vivo, patients with advanced solid tumours; conditions: for CL/F: geometric mean (CV%)
[13] = based on urinary excretion data, single 1 mg oral dose
[14] = talazoparib + rifampicin vs talazoparib alone
[15] = talazoparib + rifampicin vs talazoparib alone, listed as talazoparib
[16] = coadministration of itraconazole
[17] = talazoparib + itraconazole vs talazoparib alone

## Cn1ncnc1[C@H]1c2n[nH]c(=O)c3cc(F)cc(c23)N[C@@H]1c1ccc(F)cc1 [Talazoparib, talazoparib]
[1]
  induction or inhibition of enzymes or transporters: does not markedly induce or inhibit
[2]
  effect of food on talazoparib AUCinf: no effect
  effect of food on talazoparib Cmax: reduced
[3]
  patients who discontinued treatment due to AEs: 11.8%
  patients who discontinued treatment due to study-drug related AE: 5.9%
[4]; [13]
  absolute bioavailability: at least 54.6%
  fraction absorbed: at least 68.7%
[4]
  hepatic metabolism: minimal
  major elimination pathway: renal excretion of unchanged talazoparib
[5]
  maximum tolerated dose (MTD): 1 mg once daily (QD)
[6]
  overall tolerability: generally well tolerated
[7]; single oral 1.0 mg talazoparib + rifampicin
  CL/F: 12 5.2 (36.0) L/h
[7]; single oral 1.0 mg talazoparib alone
  CL/F: 17 4.8 (34.0) L/h
[7]; talazoparib alone
  variability of talazoparib Cmax: 53%
[7]; with rifampicin administration
  variability of talazoparib Cmax: 71%
[7]; coadministration of rifampicin
  increase in talazoparib Cmax relative to talazoparib alone: approximately 37%
[7]; human, plasma, oral, 1 mg
  Cmax: 6.01 ng/mL
[7]; human, plasma, po, 1 mg
  Cmax: 6.01 ng/mL
  Tmax: 1 h
  Vd/F: 624 L
  half-life: 92.1 h
[7]; [14]
  AUCinf geometric mean ratio (test/reference), % (90% CI): 102.0 (94.0, 110.7) %
  AUClast geometric mean ratio (test/reference), % (90% CI): 105.4 (98.0, 113.2) %
  Cmax geometric mean ratio (test/reference), % (90% CI): 136.6 (103.2, 180.9) %
[7]; [15]
  AUCinf geometric mean ratio (test/reference), % (90% CI): 102.0%
  Cmax geometric mean ratio (test/reference), % (90% CI): 136.6%
[8]
  patients who permanently discontinued treatment due to a haematological AE: 1.4%
  progression-free survival vs physician's choice of chemotherapy: statistically significant and clinically meaningful improvement
[8]; patients on talazoparib
  patients with Grade 3–4 AEs (primarily haematological): 55%
[9]
  substrate for P-gp: substrate
[10]
  substrate for breast cancer resistance protein: substrate
[11]; data pooled from multiple clinical trials
  increase in relative bioavailability of talazoparib by potent P-gp inhibitors: 45%
[11]; first-in-human, Phase 2 and 3 studies
  increase in relative bioavailability of talazoparib by potent P-gp inhibitors: 44.7%
[12]; Arm A talazoparib alone (reference), mixed effects model
  AUClast, adjusted geometric mean: 98,532.3 h pg/mL
[12]; Arm A, single oral 0.5 mg talazoparib + itraconazole
  CL/F: 12 3.3 (36.0) L/h
[12]; Arm A, single oral 0.5 mg talazoparib + itraconazole, median (range)
  Tmax: 15 1.0 (0.5–4.0) h
[12]; Arm A, single oral 0.5 mg talazoparib alone
  CL/F: 18 4.6 (42.0) L/h
[12]; [16]
  increase in talazoparib AUCinf relative to talazoparib alone: ~ 56% and 56%
  increase in talazoparib Cmax relative to talazoparib alone: ~ 40% and 40%
[12]; human, plasma, oral, 0.5 mg
  AUC(0-inf): 110 ng·h/mL
  Cmax: 2.09 ng/mL
[12]; human, plasma, po, 0.5 mg
  Cmax: 2.09 ng/mL
  Vd/F: 645 L
  half-life: 101 h
[12]; [17]
  AUCinf geometric mean ratio (test/reference), % (90% CI): 156.2 (137.6, 177.4) %
  AUClast geometric mean ratio (test/reference), % (90% CI): 150.7 (136.5, 166.4) %
  Cmax geometric mean ratio (test/reference), % (90% CI): 139.9 (113.3, 172.9) %
